These results are taken from ChEMBL document CHEMBL1201862, “PubChem BioAssay data set” (2004).

Activity calls are given as the source filed them.

Test [1] deals with Jurkat. The test is described as follows: antigen receptor-induced NF-kB inhibitors, dose response, Jurkat, luciferase reporter, luminescence, B- and T-cell (AID 489004).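 Note: NF-kB luciferase reporter Jurkat cells stimulated with PMA plus ionomycin.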 In kind it is functional, cell-based. To be noted: Homo sapiens. Background: A reporter such as luciferase makes a cellular process visible.
Test [2] in a line: LGR2 antagonists, dose response, cell-based, HEK293, CRE-luciferase reporter, cherry pick, set 2 (AID 743343).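 Note: transfected cells were stimulated with diluted bursicon conditioned medium after compound addition.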 It counts as functional.
Test [3] addresses T1, Microphthalmia-associated transcription factor (Homo sapiens, UniProt O75030).
T1 sequence (O75030 whole entry): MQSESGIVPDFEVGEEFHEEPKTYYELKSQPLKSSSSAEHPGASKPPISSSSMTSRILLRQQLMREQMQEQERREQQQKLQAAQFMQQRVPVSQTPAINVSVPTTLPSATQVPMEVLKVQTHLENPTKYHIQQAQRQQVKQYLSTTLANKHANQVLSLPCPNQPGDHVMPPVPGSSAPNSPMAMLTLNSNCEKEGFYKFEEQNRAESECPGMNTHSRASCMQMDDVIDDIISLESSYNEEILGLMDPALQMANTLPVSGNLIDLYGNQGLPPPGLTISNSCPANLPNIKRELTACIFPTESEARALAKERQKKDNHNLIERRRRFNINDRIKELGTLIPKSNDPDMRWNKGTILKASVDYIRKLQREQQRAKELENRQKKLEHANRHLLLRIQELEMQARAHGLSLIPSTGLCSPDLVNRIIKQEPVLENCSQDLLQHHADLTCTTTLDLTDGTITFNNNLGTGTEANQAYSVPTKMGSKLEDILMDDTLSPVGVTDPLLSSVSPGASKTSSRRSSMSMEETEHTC
The test can be described thus: TRPM1 promoter luciferase signal decrease, dose response, MITF inhibitor project, cell-based, SK-MEL-5, cherry-picked, set 3 (AID 493073).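 Note: SK-MEL-5 melanoma cells with luciferase driven by the MITF target TRPM1 promoter.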 It counts as functional.

Test [4] in a line: HepG2 cell cytotoxicity, dose response, cytotoxicity control, plate reader, cherry-pick, antagonist series (AID 743416). In kind it is functional, cell-based.
The nature of test [5]: cytotoxicity in HEK-293T NF-kB-Luc cells, dose response, cytotoxicity control for B/T-cell NF-kB inhibitor project, cell-based, uHTS hits (AID 489019).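 Note: IC50 reflects cytotoxicity as loss of cell viability.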 In kind it is functional.
Test [6] in a line: A549 cell cytotoxicity, dose response, cytotoxicity control, plate reader, cherry-pick, antagonist series (AID 743412). In kind it is functional, cell-based.
Another test has as its target Paired box protein Pax-8 (Homo sapiens, UniProt Q06710). The test can be described thus: inhibitors of PAX8-driven TPO luciferase reporter, dose response, RMG-I cells, cherry-pick (AID 687027).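 Note: luciferase reporter driven by Pax8 target thyroperoxidase promoter measured by SteadyGlo luminescence.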 In kind it is functional, cell-based.
Test [7] in a line: non-specific cell cytotoxicity, dose response, cytotoxicity control for PAX8 inhibitor project, plate reader, dry powder samples (AID 743021). In kind it is functional, cell-based.
Test [8] in a line: HEK293 cell cytotoxicity, dose response, cytotoxicity control, plate reader, cherry-picked samples (AID 743446). In kind it is functional, cell-based.
A short description of test [9]: MC4R antagonists, dose response, counter-screen for LGR2 antagonist project, cell-based, plate reader, cherry pick (AID 743444).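 Note: transfected HEK 293 cells stimulated with alpha-MSH peptide; potency of inhibitors of the alpha-MSH evoked signal.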 It counts as functional.
Test [10] is described as follows: Counterscreen for AddAB inhibitors: absorbance-based bacterial cell-based high throughput dose response assay for inhibitors of bacterial viability. [Related pubchem assays (depositor defined):AID435030, AID449728, AID449731, AID488942, AID488955, AID488956]. In kind it is functional. In general terms: Counterscreens check selectivity or assay interference.
The target in another test is Exodeoxyribonuclease V (Escherichia coli (strain K12), UniProt P04993+P07648+P08394). The test can be described thus: E. coli RecBCD inhibitors, dose response, counter-screen for AddAB inhibitor project, absorbance, V66 E. coli, mutant T4 phage (AID 492957). In kind it is functional, cell-based, Escherichia coli str. K-12 substr. MG1655.
Test [11] addresses Nucleotide-binding oligomerization domain-containing protein 1 (Homo sapiens, UniProt Q9Y239). The test is described as follows: NOD1 signaling inhibitors, SAR follow-up, revised (AID 2333). In kind it is functional.
In test [12] the test system is HEK293. The test is described as follows: cells. The settings on record: Homo sapiens.
In test [13] the target is Nucleotide-binding oligomerization domain-containing protein 2 (Homo sapiens, UniProt Q9HC29). The test is described as follows: PubChem AID 2334. It counts as functional.
For another test, the target named is Tumor necrosis factor (Homo sapiens, UniProt P01375). The test can be described thus: TNFa-triggered NF-kB activation inhibitors, SAR follow-up, cell-based, revised (AID 2337). In kind it is functional.
The subject of test [14] is HEK293. The test is described as follows: cytotoxicity in HEK293T NF-kB-Luc cells, SAR follow-up, cytotoxicity control for NF-kB activator project, cell-based, resazurin fluorescence (AID 493251). It counts as functional. To be noted: Homo sapiens.
In test [15] the test system is Jurkat. The test is described as follows: SAR Analysis of small molecule inhibitors of T-cell specific antigen receptor-induced NF-kB activation in a Jurkat cell line using a luminescence assay - Set 2. [Related pubchem assays (depositor defined):AID435003, AID435012, AID465]. In kind it is functional, cell-based. The settings on record: Homo sapiens.
Test [16] concerns HEK293. The test is described as follows: SAR Analysis of small molecule inhibitors of T-cell specific antigen receptor-induced NF-kB activation in a HEK-293T cell line using a luminescence assay - Set 2. [Related pubchem assays (depositor defined):AID435003, AID435012, AID489026]. In kind it is functional, cell-based. The settings on record: Homo sapiens.
Test [17] addresses Serine/threonine-protein phosphatase (Candida dubliniensis (strain CD36 / CBS 7987 / NCPF 3949 / NRRLY-17841) (Yeast), UniProt B9W6M3). The test can be described thus: Fluorescence Cell-Based Secondary Assay to Identify Inhibitors of Calcineurin. [Related pubchem assays (depositor defined):AID1979, AID2007]. It counts as functional.
Test [18] deals with T2, Dual specificity protein phosphatase 6 (Rattus norvegicus, UniProt Q64346).
T2 sequence (Q64346 whole entry): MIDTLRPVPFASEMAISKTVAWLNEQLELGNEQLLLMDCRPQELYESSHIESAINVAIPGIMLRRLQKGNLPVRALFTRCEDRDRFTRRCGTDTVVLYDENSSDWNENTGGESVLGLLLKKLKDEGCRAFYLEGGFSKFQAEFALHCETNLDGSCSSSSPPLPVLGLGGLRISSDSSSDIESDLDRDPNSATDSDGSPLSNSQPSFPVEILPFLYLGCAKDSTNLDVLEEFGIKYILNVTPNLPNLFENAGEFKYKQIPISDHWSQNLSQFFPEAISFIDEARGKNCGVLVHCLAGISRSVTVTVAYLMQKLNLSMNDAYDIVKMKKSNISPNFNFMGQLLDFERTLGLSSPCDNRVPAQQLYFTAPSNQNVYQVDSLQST
The test can be described thus: MKP-3 phosphatase inhibitors, primary screen, biochemical, rat enzyme, in vitro (AID 425).

Test [19] deals with T3, Dual specificity protein phosphatase 3 (Homo sapiens, UniProt P51452). The test can be described thus: VHR1 phosphatase inhibitors, primary screen, biochemical, absorbance, uHTS (AID 1654).
In test [20] the target is T3, Dual specificity protein phosphatase 3. The test can be described thus: VHR1 phosphatase inhibitors, biochemical (AID 1878).
The nature of test [21]: growth induction of Burl-1 ts yeast mutant, dose response, counter-screen for SUMOylation pathway inhibitor project, whole organism, S. cerevisiae, luminescence (AID 463199). In kind it is functional.

T3 sequence (P51452 whole entry): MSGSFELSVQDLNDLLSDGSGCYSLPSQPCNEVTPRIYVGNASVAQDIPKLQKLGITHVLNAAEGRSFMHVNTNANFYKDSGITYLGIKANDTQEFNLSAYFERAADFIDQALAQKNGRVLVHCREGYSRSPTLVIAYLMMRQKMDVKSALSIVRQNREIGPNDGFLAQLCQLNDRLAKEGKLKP
Sequence of Serine/threonine-protein phosphatase (B9W6M3 whole entry): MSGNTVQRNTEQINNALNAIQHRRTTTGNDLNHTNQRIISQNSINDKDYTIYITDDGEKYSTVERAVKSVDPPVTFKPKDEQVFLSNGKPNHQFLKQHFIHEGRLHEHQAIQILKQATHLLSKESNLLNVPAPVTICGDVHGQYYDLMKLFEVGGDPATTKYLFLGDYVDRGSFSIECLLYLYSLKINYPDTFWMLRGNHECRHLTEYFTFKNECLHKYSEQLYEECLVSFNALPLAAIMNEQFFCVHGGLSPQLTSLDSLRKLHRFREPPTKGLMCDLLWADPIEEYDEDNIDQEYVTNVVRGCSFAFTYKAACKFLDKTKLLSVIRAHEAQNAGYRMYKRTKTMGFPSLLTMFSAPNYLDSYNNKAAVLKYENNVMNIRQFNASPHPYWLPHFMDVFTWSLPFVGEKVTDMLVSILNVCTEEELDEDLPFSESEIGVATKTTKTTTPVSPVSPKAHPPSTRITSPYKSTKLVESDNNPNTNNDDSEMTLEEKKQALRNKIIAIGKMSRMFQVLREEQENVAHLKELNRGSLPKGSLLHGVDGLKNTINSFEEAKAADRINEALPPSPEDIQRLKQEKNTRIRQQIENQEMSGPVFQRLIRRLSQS
Sequence of Exodeoxyribonuclease V (P04993 whole entry, the tested form may be a part): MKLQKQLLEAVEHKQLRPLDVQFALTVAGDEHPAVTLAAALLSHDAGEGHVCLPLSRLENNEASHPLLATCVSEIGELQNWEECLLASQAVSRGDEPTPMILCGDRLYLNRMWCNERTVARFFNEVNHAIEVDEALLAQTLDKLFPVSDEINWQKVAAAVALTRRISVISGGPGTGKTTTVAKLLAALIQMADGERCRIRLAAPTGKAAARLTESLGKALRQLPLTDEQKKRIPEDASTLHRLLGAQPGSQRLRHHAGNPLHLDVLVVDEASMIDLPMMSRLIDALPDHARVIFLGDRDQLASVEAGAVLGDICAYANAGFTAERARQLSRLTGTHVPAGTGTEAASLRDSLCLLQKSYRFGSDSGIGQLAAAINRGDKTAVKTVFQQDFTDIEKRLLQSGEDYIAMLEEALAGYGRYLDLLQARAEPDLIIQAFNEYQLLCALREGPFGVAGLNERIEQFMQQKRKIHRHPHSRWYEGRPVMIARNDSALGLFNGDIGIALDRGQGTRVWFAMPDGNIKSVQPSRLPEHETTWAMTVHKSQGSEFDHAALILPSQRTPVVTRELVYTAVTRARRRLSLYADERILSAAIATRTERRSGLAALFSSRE
Sequence of Exodeoxyribonuclease V (P07648 whole entry, the tested form may be a part): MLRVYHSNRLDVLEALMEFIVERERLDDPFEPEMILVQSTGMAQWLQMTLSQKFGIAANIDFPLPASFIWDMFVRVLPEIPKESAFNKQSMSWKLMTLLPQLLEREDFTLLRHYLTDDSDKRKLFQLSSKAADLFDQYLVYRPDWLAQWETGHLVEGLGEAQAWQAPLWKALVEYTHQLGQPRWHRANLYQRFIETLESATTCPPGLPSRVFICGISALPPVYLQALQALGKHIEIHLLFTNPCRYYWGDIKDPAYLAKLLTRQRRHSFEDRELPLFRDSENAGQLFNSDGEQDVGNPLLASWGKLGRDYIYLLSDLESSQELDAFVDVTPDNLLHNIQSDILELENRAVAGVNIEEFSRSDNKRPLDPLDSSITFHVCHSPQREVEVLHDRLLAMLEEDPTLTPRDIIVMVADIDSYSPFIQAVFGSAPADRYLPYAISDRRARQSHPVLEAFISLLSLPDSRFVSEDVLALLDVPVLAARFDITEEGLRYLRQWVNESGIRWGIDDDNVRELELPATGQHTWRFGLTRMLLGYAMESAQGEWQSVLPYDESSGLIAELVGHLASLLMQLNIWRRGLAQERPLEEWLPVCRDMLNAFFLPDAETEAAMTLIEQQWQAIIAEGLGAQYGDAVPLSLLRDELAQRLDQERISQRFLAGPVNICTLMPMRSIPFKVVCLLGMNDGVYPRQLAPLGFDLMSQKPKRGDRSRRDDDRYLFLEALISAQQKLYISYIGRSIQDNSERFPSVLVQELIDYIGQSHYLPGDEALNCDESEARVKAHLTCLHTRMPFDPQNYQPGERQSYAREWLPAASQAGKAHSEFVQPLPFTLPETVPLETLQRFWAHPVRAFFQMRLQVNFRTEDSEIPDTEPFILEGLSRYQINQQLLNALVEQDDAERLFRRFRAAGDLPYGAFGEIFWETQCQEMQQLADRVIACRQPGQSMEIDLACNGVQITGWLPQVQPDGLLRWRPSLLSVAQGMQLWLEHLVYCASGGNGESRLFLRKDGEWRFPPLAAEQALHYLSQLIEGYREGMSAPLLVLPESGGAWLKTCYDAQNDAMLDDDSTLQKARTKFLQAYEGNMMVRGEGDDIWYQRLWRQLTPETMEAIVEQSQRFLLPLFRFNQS
Sequence of Exodeoxyribonuclease V (P08394 whole entry, the tested form may be a part): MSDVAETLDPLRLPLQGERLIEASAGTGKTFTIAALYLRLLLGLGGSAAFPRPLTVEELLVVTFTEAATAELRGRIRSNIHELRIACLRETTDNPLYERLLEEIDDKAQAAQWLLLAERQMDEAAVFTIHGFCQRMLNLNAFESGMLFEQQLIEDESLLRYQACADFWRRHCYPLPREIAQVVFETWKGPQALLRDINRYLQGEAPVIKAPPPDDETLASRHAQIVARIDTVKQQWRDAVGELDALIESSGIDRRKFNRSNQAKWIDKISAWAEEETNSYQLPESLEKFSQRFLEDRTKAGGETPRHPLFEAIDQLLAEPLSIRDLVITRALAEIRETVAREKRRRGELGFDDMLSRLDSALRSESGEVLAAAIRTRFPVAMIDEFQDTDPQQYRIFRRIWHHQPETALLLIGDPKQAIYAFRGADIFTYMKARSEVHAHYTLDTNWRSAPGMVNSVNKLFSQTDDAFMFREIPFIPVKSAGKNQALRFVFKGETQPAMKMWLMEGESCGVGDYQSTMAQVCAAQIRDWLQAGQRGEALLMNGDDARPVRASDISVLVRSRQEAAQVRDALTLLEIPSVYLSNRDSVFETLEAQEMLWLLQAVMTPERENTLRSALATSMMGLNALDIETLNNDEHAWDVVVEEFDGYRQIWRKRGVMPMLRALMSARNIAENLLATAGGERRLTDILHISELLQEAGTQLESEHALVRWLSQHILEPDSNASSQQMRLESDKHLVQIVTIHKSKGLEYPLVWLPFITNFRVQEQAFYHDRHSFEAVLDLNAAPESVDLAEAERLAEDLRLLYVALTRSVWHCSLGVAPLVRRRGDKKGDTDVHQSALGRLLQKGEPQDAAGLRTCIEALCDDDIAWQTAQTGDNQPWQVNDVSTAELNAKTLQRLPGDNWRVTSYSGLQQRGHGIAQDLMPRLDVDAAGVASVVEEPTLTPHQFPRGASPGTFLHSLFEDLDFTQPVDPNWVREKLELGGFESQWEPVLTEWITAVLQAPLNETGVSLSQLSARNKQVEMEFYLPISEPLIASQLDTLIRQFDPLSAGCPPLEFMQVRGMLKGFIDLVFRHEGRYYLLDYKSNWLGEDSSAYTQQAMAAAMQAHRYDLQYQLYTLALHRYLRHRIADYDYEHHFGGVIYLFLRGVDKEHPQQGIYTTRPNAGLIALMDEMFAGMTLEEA
Sequence of Tumor necrosis factor (P01375 whole entry): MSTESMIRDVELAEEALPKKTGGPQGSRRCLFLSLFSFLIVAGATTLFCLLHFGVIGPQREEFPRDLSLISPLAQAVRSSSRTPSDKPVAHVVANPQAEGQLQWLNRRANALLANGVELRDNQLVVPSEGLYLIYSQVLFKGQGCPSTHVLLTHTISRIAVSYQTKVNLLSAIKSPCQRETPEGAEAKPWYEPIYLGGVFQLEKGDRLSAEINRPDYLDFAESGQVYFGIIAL
Sequence of Nucleotide-binding oligomerization domain-containing protein 2 (Q9HC29 whole entry, the tested form may be a part): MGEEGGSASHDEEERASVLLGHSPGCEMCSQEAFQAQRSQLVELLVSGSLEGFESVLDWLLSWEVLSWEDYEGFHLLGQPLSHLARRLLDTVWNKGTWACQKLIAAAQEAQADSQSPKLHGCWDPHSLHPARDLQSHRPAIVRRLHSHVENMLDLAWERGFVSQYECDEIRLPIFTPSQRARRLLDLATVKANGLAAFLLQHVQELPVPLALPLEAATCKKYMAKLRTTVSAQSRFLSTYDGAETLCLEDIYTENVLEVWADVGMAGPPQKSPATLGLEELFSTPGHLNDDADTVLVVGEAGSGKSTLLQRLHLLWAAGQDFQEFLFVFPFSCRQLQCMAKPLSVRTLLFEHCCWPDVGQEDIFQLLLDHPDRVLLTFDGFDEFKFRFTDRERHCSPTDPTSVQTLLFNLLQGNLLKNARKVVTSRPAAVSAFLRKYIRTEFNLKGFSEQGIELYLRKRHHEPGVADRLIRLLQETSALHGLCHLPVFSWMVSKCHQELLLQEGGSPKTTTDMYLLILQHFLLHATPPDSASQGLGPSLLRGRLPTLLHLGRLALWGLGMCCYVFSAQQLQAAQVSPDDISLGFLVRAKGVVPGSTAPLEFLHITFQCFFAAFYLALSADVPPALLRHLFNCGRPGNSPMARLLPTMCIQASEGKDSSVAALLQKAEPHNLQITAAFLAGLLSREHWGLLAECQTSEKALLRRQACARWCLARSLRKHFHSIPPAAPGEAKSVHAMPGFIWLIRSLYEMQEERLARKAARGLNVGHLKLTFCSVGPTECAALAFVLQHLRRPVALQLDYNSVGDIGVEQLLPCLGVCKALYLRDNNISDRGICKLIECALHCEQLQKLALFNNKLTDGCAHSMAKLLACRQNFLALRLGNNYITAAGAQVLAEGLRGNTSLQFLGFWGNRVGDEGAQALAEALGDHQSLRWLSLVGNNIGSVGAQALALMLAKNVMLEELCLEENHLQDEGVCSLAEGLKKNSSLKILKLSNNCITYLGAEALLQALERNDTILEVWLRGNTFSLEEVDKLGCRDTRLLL

Usually IC50 stands for the concentration at which inhibition is half-maximal. The term AC50 denotes the concentration at which the activity in the assay is half-maximal. Turning to `CCOc1ccc(NC(=O)Nc2cccc(C(=O)O)c2)cc1`, the results for the IC50 (in the test on Jurkat [1]; in test [5]) were 0.85 µM (active) and > 80 µM (inactive), respectively. In addition, the AC50 was 0.303 µM (active) in test [2]; 1.53 µM (active) in test [3]; > 52 µM (inactive) in test [4]; 45.1 µM (active) in test [6]; 3.85 µM (active) on Paired box protein Pax-8; 11.7 µM (active) in [7]. For the same molecule, the AC50 was 40.4 µM (active) in test [8] and 0.319 µM (active) in test [9].
Take `O=C(Cc1ccc2c(c1)OCO2)NN=Cc1ccc([N+](=O)[O-])o1`: in [3], the AC50 is 8.55 µM (active). Besides, the IC50 in [10] is 21 µM (inactive); at Exodeoxyribonuclease V, > 39.5 µM (inactive).
For the molecule `CC(C)(C)NC(=S)NNC=C1C=C(Br)C(=O)C(Br)=C1`, the 50% inhibitory concentration (IC50) is 7.29 µM (active) in [11], > 20 µM (inactive) with HEK293 [12], 7.93 µM (active) in test [13] and 15.6 µM (active) on Tumor necrosis factor.
Turning to `CC(=O)c1cccc(NC(=O)c2ccc([N+](=O)[O-])o2)c1`, the IC50 is 69.3 µM (inactive) in the test with HEK293 [14], 27.6 µM (inactive) in the test on Jurkat [15] and 37.1 µM (inactive) in the test with HEK293 [16].
In general, EC50 refers to the concentration giving half of the maximal effect. For the molecule `O=C(Nc1nnc(SCc2ccc(Cl)cc2)s1)c1ccc2ccccc2n1`, the EC50 in test [17] was > 285 µM (inactive).
As for `O=C(O)c1cc(-c2ccc(/C=c3\sc4nc5ccc(Br)cc5n4c3=O)o2)ccc1Cl`, the IC50 is 12 µM (active) in [18], 3.97 µM (active) in [19] and 1.42 µM (active) in test [20].
On to `CCCCn1c(/N=C/c2ccc3c(c2)OCO3)nc2ccccc21`, for which the AC50 in test [21] was 60 µM (active).
